Laboratory results taken from BigSolDB 2.1.

CC(=O)c1ccc(O)cc1O
solubility (mole fraction) (in benzene, 293.15 K): 0.00045
solubility (mole fraction) (in benzene, 298.15 K): 0.00055
solubility (mole fraction) (in benzene, 303.15 K): 0.00067
solubility (mole fraction) (in benzene, 308.15 K): 0.00082
solubility (mole fraction) (in benzene, 313.15 K): 0.00102
solubility (mole fraction) (in benzene, 318.15 K): 0.00125
solubility (mole fraction) (in benzene, 323.15 K): 0.0015
solubility (mole fraction) (in benzene, 328.15 K): 0.00178
solubility (mole fraction) (in benzene, 333.15 K): 0.00207
solubility (mole fraction) (in ethanol, 293.15 K): 0.118
solubility (mole fraction) (in ethanol, 298.15 K): 0.131
solubility (mole fraction) (in ethanol, 303.15 K): 0.146
solubility (mole fraction) (in ethanol, 308.15 K): 0.162
solubility (mole fraction) (in ethanol, 313.15 K): 0.177
solubility (mole fraction) (in ethanol, 318.15 K): 0.195
solubility (mole fraction) (in ethanol, 323.15 K): 0.216
solubility (mole fraction) (in ethanol, 328.15 K): 0.235
solubility (mole fraction) (in ethanol, 333.15 K): 0.257
solubility (mole fraction) (in ethyl acetate, 293.15 K): 0.118
solubility (mole fraction) (in ethyl acetate, 298.15 K): 0.129
solubility (mole fraction) (in ethyl acetate, 303.15 K): 0.139
solubility (mole fraction) (in ethyl acetate, 308.15 K): 0.152
solubility (mole fraction) (in ethyl acetate, 313.15 K): 0.166
solubility (mole fraction) (in ethyl acetate, 318.15 K): 0.18
solubility (mole fraction) (in ethyl acetate, 323.15 K): 0.199
solubility (mole fraction) (in ethyl acetate, 328.15 K): 0.216
solubility (mole fraction) (in ethyl acetate, 333.15 K): 0.236
solubility (mole fraction) (in isobutanol, 293.15 K): 0.0782
solubility (mole fraction) (in isobutanol, 298.15 K): 0.091
solubility (mole fraction) (in isobutanol, 303.15 K): 0.107
solubility (mole fraction) (in isobutanol, 308.15 K): 0.122
solubility (mole fraction) (in isobutanol, 313.15 K): 0.139
solubility (mole fraction) (in isobutanol, 318.15 K): 0.156
solubility (mole fraction) (in isobutanol, 323.15 K): 0.18
solubility (mole fraction) (in isobutanol, 328.15 K): 0.199
solubility (mole fraction) (in isobutanol, 333.15 K): 0.221
solubility (mole fraction) (in isopropanol, 293.15 K): 0.13
solubility (mole fraction) (in isopropanol, 298.15 K): 0.144
solubility (mole fraction) (in isopropanol, 303.15 K): 0.162
solubility (mole fraction) (in isopropanol, 308.15 K): 0.178
solubility (mole fraction) (in isopropanol, 313.15 K): 0.194
solubility (mole fraction) (in isopropanol, 318.15 K): 0.211
solubility (mole fraction) (in isopropanol, 323.15 K): 0.231
solubility (mole fraction) (in isopropanol, 328.15 K): 0.25
solubility (mole fraction) (in isopropanol, 333.15 K): 0.271
solubility (mole fraction) (in methanol, 293.15 K): 0.103
solubility (mole fraction) (in methanol, 298.15 K): 0.117
solubility (mole fraction) (in methanol, 303.15 K): 0.132
solubility (mole fraction) (in methanol, 308.15 K): 0.148
solubility (mole fraction) (in methanol, 313.15 K): 0.163
solubility (mole fraction) (in methanol, 318.15 K): 0.183
solubility (mole fraction) (in methanol, 323.15 K): 0.203
solubility (mole fraction) (in methanol, 328.15 K): 0.228
solubility (mole fraction) (in methanol, 333.15 K): 0.253
solubility (mole fraction) (in methyl acetate, 293.15 K): 0.114
solubility (mole fraction) (in methyl acetate, 298.15 K): 0.126
solubility (mole fraction) (in methyl acetate, 303.15 K): 0.141
solubility (mole fraction) (in methyl acetate, 308.15 K): 0.155
solubility (mole fraction) (in methyl acetate, 313.15 K): 0.168
solubility (mole fraction) (in methyl acetate, 318.15 K): 0.182
solubility (mole fraction) (in methyl acetate, 323.15 K): 0.201
solubility (mole fraction) (in methyl acetate, 328.15 K): 0.212
solubility (mole fraction) (in n-butanol, 293.15 K): 0.104
solubility (mole fraction) (in n-butanol, 298.15 K): 0.118
solubility (mole fraction) (in n-butanol, 303.15 K): 0.133
solubility (mole fraction) (in n-butanol, 308.15 K): 0.153
solubility (mole fraction) (in n-butanol, 313.15 K): 0.172
solubility (mole fraction) (in n-butanol, 318.15 K): 0.191
solubility (mole fraction) (in n-butanol, 323.15 K): 0.214
solubility (mole fraction) (in n-butanol, 328.15 K): 0.233
solubility (mole fraction) (in n-butanol, 333.15 K): 0.253
solubility (mole fraction) (in n-propanol, 293.15 K): 0.106
solubility (mole fraction) (in n-propanol, 298.15 K): 0.118
solubility (mole fraction) (in n-propanol, 303.15 K): 0.135
solubility (mole fraction) (in n-propanol, 308.15 K): 0.151
solubility (mole fraction) (in n-propanol, 313.15 K): 0.167
solubility (mole fraction) (in n-propanol, 318.15 K): 0.18
solubility (mole fraction) (in n-propanol, 323.15 K): 0.195
solubility (mole fraction) (in n-propanol, 328.15 K): 0.216
solubility (mole fraction) (in n-propanol, 333.15 K): 0.233
solubility (mole fraction) (in n-propyl acetate, 293.15 K): 0.11
solubility (mole fraction) (in n-propyl acetate, 298.15 K): 0.12
solubility (mole fraction) (in n-propyl acetate, 303.15 K): 0.129
solubility (mole fraction) (in n-propyl acetate, 308.15 K): 0.143
solubility (mole fraction) (in n-propyl acetate, 313.15 K): 0.155
solubility (mole fraction) (in n-propyl acetate, 318.15 K): 0.171
solubility (mole fraction) (in n-propyl acetate, 323.15 K): 0.189
solubility (mole fraction) (in n-propyl acetate, 328.15 K): 0.205
solubility (mole fraction) (in n-propyl acetate, 333.15 K): 0.222
